In one assay the target is human DGKζ (Homo sapiens (Human), UniProt Q13574). The assay can be described thus: DGKζ LIPGLO assay (extruded liposome substrate, ADP-Glo luminescence). The format is biochemical. For orientation: In ADP-Glo the light output rises with the ADP produced.
In another assay the target is human DGKα (Homo sapiens (Human), UniProt P23743). The assay can be described thus: DGKα ADPGLO assay (detergent/lipid micelle substrate). Type of assay: biochemical. How it is done: DGK Alpha ADPGLO (Truncated) IC50 (uM)
The detergent/lipid micelle was prepared by combining 15 g phosphatidylserine (Avanti 840035P) and 1 g diacylglycerol (8008110) and dissolving into 150 mL chloroform in a 2 L round bottom flask. Chloroform was removed under high vacuum by rotary evaporation. […] The lipid/detergent solution was split into 5 mL aliquots and stored at −80° C.

Where [1] appears, read: liposome assay, read-out: DGK zeta LIPGLO IC50.
Setting [2] is: truncated DGK alpha, read-out: DGK alpha ADPGLO (Truncated) IC50.
The mark [3] stands for this setting: liposome (LIPGLO) assay, read-out: DGK zeta (liposome assay) IC50.
The mark [4] stands for this setting: ADPGLO assay, read-out: DGK alpha ADPGLO IC50.

Where two headings read alike, the source gives them in different places.

Chain of human DGKζ (Q13574 other isoform, or with tags, fused parts or gaps): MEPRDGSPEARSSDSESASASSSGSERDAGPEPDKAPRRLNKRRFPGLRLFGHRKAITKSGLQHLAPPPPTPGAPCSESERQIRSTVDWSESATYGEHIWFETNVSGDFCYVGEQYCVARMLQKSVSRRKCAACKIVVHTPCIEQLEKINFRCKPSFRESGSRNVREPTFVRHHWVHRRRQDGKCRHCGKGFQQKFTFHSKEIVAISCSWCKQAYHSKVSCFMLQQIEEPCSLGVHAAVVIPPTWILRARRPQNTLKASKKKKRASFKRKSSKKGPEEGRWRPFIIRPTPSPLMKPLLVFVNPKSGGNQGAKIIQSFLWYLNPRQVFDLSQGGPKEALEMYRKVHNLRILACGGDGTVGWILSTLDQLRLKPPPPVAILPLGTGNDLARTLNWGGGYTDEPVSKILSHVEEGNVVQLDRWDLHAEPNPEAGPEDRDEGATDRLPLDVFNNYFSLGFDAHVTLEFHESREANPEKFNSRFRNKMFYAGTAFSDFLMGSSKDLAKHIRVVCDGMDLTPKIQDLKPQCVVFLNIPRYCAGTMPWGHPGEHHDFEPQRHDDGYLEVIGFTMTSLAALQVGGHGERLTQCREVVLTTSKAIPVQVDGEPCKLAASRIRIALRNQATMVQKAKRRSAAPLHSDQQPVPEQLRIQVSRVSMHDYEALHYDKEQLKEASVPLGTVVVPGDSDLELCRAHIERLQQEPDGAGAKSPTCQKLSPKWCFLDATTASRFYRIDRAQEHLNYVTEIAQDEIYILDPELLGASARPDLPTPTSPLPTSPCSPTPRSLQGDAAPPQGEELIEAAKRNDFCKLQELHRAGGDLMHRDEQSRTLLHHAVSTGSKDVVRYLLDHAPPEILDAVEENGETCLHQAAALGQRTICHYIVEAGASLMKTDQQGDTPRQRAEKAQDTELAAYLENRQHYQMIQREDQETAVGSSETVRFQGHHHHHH
Chain of human DGKα (P23743 whole entry, looked up, the tested form may be a part): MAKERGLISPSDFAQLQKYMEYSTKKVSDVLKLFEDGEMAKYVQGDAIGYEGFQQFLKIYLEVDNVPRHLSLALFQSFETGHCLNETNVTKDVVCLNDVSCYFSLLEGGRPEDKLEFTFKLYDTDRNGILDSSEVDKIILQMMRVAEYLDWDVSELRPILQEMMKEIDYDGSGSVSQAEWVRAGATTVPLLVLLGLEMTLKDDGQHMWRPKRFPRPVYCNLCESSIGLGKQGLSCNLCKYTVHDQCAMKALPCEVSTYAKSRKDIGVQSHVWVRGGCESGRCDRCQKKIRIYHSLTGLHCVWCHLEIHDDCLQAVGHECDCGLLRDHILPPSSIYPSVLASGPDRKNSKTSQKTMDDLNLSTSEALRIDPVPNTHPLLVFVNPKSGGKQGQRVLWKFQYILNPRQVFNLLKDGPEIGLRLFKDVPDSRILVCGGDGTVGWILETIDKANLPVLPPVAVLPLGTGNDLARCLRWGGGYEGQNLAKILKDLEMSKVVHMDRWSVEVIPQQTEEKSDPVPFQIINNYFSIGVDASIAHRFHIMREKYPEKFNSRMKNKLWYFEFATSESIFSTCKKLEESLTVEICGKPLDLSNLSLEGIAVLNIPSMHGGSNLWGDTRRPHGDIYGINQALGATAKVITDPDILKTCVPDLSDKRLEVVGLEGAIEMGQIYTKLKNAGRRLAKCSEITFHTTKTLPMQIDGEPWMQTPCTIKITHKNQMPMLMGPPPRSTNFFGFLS

Broadly, the IC50 is the concentration needed to halve the response being measured. As for `CC[C@H]1CN(C(C)c2ccc(C3(C#N)CC3)cc2)[C@H](CC)CN1c1nc(=O)n(C)c2ccc(C#N)nc12` (stereo partly drawn) [Example 263, 4-((2S,5R)-4-(1-(4-(1-cyanocyclopropyl)phenyl)ethyl)-2,5-diethylpiperazin-1-yl)-1-methyl-2-oxo-1,2-dihydropyrido[3,2-d]pyrimidine-6-carbonitrile], the IC50 on human DGKζ (setting [1]) amounted to 0.062 µM; on human DGKα (setting [2]), 0.29 µM.
As for `CC[C@H]1CN(C(C)c2ccc(CN3CCC(O)CC3)cc2)[C@H](CC)CN1c1nc(=O)n(C)c2ccc(C#N)nc12` (stereo partly drawn) [Example 285, 4-((2S,5R)-2,5-diethyl-4-(1-(4-((4-hydroxypiperidin-1-yl)methyl)phenyl)ethyl)piperazin-1-yl)-1-methyl-2-oxo-1,2-dihydropyrido[3,2-d]pyrimidine-6-carbonitrile], the IC50 at human DGKζ (setting [1]) came to 8.54 µM; at human DGKα (setting [2]) it was 4.1 µM.
For the compound `CC[C@@H]1CN(c2nc(=O)n(C)c3ccc(C#N)nc23)[C@@H](C)CN1C(c1nnc(C2CC2)o1)C(C)C` (single isomer, unassigned) [Example 368], the IC50 on human DGKζ (setting [3]) was determined as 2.25 µM; on human DGKα (setting [4]), 1.17 µM.
For `CC[C@H]1CN(C(C)c2ccc(CN3CCC(O)CC3)cc2)[C@H](CC)CN1c1nc(=O)n(C)c2ccc(C#N)nc12` (stereo partly drawn) [Example 286, 4-((2S,5R)-2,5-diethyl-4-(1-(4-((4-hydroxypiperidin-1-yl)methyl)phenyl)ethyl)piperazin-1-yl)-1-methyl-2-oxo-1,2-dihydropyrido[3,2-d]pyrimidine-6-carbonitrile], the IC50 on human DGKζ (setting [1]) was 125 µM; at human DGKα (setting [2]), 36.2 µM.
For the compound `CC[C@H]1CN(C(C)c2ccc(CN3CCC(F)(F)CC3)cc2)[C@H](CC)CN1c1nc(=O)n(C)c2ccc(C#N)nc12` (stereo partly drawn) [Example 277, 4-((2S,5R)-4-(1-(4-((4,4-difluoropiperidin-1-yl)methyl)phenyl)ethyl)-2,5-diethylpiperazin-1-yl)-1-methyl-2-oxo-1,2-dihydropyrido[3,2-d]pyrimidine-6-carbonitrile], the values for the IC50 at human DGKζ (setting [1]) and at human DGKα (setting [2]) were 0.018 µM and 0.16 µM, respectively.
Take `CC[C@H]1CN(C(c2ccc(F)cc2)c2cccc(C(F)F)n2)[C@H](CC)CN1c1nc(=O)n(C)c2ccc(C#N)nc12` (stereo partly drawn) [Example 257, 4-((2S,5R)-4((6-(difluoromethyl)pyridin-2-yl)(4-fluorophenyl)methyl)-2,5-diethylpiperazin-1-yl)-1-methyl-2-oxo-1,2-dihydropyrido[3,2-d]pyrimidine-6-carbonitrile]: the figures for the IC50 on human DGKζ (setting [1]) and on human DGKα (setting [2]) were 0.25 µM and 0.17 µM, respectively.
For `CCC(C1CC(F)(F)C1)N1C[C@H](C)N(c2nc(=O)n(C)c3ccc(C#N)nc23)C[C@H]1C` (stereo partly drawn) [Example 457, 4-((2S,5R)-4-(1-(3,3-difluorocyclobutyl)propyl)-2,5-dimethylpiperazin-1-yl)-1-methyl-2-oxo-1,2-dihydropyrido[3,2-d]pyrimidine-6-carbonitrile], the IC50 at human DGKζ (setting [3]) was found to be 1.05 µM; at human DGKα (setting [4]), 4.01 µM.
Regarding `CC[C@H]1CN(C(C)c2ccc(CN3CCN(C)C(=O)C3)cc2)[C@H](CC)CN1c1nc(=O)n(C)c2ccc(C#N)nc12` (stereo partly drawn) [Example 287, 4-((2S,5R)-2,5-diethyl-4-(1-(4-((4-methyl-3-oxopiperazin-1-yl)methyl)phenyl)ethyl)piperazin-1-yl)-1-methyl-2-oxo-1,2-dihydropyrido[3,2-d]pyrimidine-6-carbonitrile], the IC50 turned out to be 0.5 µM at human DGKζ (setting [1]) and 0.21 µM at human DGKα (setting [2]).
Take `CC[C@H]1CN(C(C)c2ccc(C(F)(F)F)cc2)[C@H](CC)CN1c1nc(=O)n(C)c2ccc(OC(F)F)nc12` (stereo partly drawn) [Example 444, 4-((2S,5R)-2,5-Diethyl-4-(1-(4-(trifluoromethyl)phenyl)ethyl)piperazin-1-yl)-6-(difluoromethoxy)-1-methylpyrido[3,2-d]pyrimidin-2(1H)-one]: the IC50 at human DGKζ (setting [3]) was found to be 0.18 µM; on human DGKα (setting [4]) it was 0.4 µM.
The like results for `CC[C@@H]1CN(c2nc(=O)[nH]c3ccc(C#N)nc23)[C@@H](C)CN1C(C)c1ccc(C(F)(F)F)cc1` (single isomer, unassigned) [Example 413] were, in that order, 0.75 µM and 0.44 µM.
Turning to `CCC(c1ccc(OC(C)C)cc1)N1C[C@H](CC)N(c2nc(=O)n(C)c3ccc(C#N)nc23)C[C@H]1CC` (stereo partly drawn) [Example 235, 4-((2S,5R)-2,5-diethyl-4-(1-(4-isopropoxyphenyl)propyl)piperazin-1-yl)-1-methyl-2-oxo-1,2-dihydropyrido[3,2-d] pyrimidine-6-carbonitrile], the 50% inhibitory concentration (IC50) was 0.78 µM on human DGKζ (setting [1]) and 0.43 µM at human DGKα (setting [2]).
For the compound `CC[C@H]1CN(C(C)c2ccc(CN3CCCCC3)cc2)[C@H](CC)CN1c1nc(=O)n(C)c2ccc(C#N)nc12` (stereo partly drawn) [Example 281, 4-((2S,5R)-2,5-diethyl-4-(1-(4-(piperidin-1-ylmethyl)phenyl)ethyl)piperazin-1-yl)-1-methyl-2-oxo-1,2-dihydropyrido[3,2-d]pyrimidine-6-carbonitrile], the figures for the IC50 at human DGKζ (setting [1]) and at human DGKα (setting [2]) were 43.6 µM and 7.17 µM, respectively.
`CCC(c1ccc(C2CC2)cc1)N1C[C@H](C)N(c2nc(=O)n(C)c3ccc(C#N)nc23)C[C@H]1CC` (stereo partly drawn) [Example 301, 4-((2S,5R)-4-(1-(4-cyclopropylphenyl)propyl)-5-ethyl-2-methylpiperazin-1-yl)-1-methyl-2-oxo-1,2-dihydropyrido[3,2-d]pyrimidine-6-carbonitrile]: the IC50 is 0.43 µM on human DGKζ (setting [1]) and 0.13 µM on human DGKα (setting [2]).
Taken in the same sequence, the figures for `CC[C@H]1CN(C(C)c2ccc(CN3CCN(C)C(=O)C3)cc2)[C@H](CC)CN1c1nc(=O)n(C)c2ccc(C#N)nc12` (stereo partly drawn) [Example 288, 4-((2S,5R)-2,5-diethyl-4-(1-(4-((4-methyl-3-oxopiperazin-1-yl)methyl)phenyl)ethyl)piperazin-1-yl)-1-methyl-2-oxo-1,2-dihydropyrido[3,2-d]pyrimidine-6-carbonitrile] were 31.7 µM and 4.11 µM.
As for `CC[C@@H]1CN(c2nc(=O)n(C)c3ccc(C#N)nc23)[C@@H](CC)CN1Cc1ccc(C2CC2)cc1F` [Example 242, 4-((2S,5R)-4-(4-cyclopropyl-2-fluorobenzyl)-2,5-diethylpiperazin-1-yl)-1-methyl-2-oxo-1,2-dihydropyrido[3,2-d]pyrimidine-6-carbonitrile], the figures for the IC50 on human DGKζ (setting [1]) and on human DGKα (setting [2]) were 0.19 µM and 0.26 µM, respectively.
Consider `CC[C@H]1CN(C(C)c2ccc(C(C)(C)N3CCOCC3)cc2)[C@H](CC)CN1c1nc(=O)n(C)c2ccc(C#N)nc12` (stereo partly drawn) [Example 247, 4-((2S,5R)-2,5-diethyl-4-(1-(4-(2-morpholinopropan-2-yl)phenyl)ethyl)piperazin-1-yl)-1-methyl-2-oxo-1,2-dihydropyrido[3,2-d]pyrimidine-6-carbonitrile], for which the IC50 at human DGKζ (setting [1]) is 0.84 µM; on human DGKα (setting [2]), 5.87 µM.
Regarding `CCC(C1CC(F)(F)C1)N1C[C@H](C)N(c2nc(=O)n(C)c3ccc(C#N)nc23)C[C@H]1C` (stereo partly drawn) [Example 458, 4-((2S,5R)-4-(1-(3,3-difluorocyclobutyl)propyl)-2,5-dimethylpiperazin-1-yl)-1-methyl-2-oxo-1,2-dihydropyrido[3,2-d]pyrimidine-6-carbonitrile], the IC50 at human DGKζ (setting [3]) is 6.47 µM; on human DGKα (setting [4]), 7.74 µM.
Take `CCC(C1CC1)N1C[C@H](C)N(c2nc(=O)n(C)c3ccc(C#N)nc23)C[C@H]1C` (stereo partly drawn) [Example 455, 4-((2S,5R)-4-(1-cyclopropylpropyl)-2,5-dimethylpiperazin-1-yl)-1-methyl-2-oxo-1,2-dihydropyrido[3,2-d]pyrimidine-6-carbonitrile]: the values for the IC50 at human DGKζ (setting [3]) and on human DGKα (setting [4]) were 7.55 µM and 5.12 µM, respectively.
For the compound `CC[C@H]1CN(C(C)c2ccc(C3(C)CC3)cc2)[C@H](CC)CN1c1nc(=O)n(C)c2ccc(C#N)nc12` (stereo partly drawn) [Example 218, 4-((2S,5R)-2,5-diethyl-4-(1-(4-(1-methylcyclopropyl)phenyl)ethyl)piperazin-1-yl)-1-methyl-2-oxo-1,2-dihydropyrido[3,2-d]pyrimidine-6-carbonitrile], the values for the half-maximal inhibitory concentration (IC50) on human DGKζ (setting [1]) and at human DGKα (setting [2]) were 0.018 µM and 0.078 µM, respectively.
Regarding `CCC(c1ccc(C2CC2)cc1F)N1C[C@H](C)N(c2nc(=O)n(C)c3ccc(C#N)nc23)C[C@H]1CC` (stereo partly drawn) [Example 303, 4-((2S,5R)-4-(1-(4-cyclopropyl-2-fluorophenyl)propyl)-5-ethyl-2-methylpiperazin-1-yl)-1-methyl-2-oxo-1,2-dihydropyrido[3,2-d]pyrimidine-6-carbonitrile], the IC50 at human DGKζ (setting [1]) came out at 5.07 µM; on human DGKα (setting [2]) it was 1.77 µM.
For `CC[C@@H]1CN(c2nc(=O)n(C)c3ccc(C#N)nc23)[C@@H](C)CN1C(C)c1ccc(C(F)(F)F)c(CN(C)C)c1` (stereo partly drawn) [Example 352, 4-((2S,5R)-4-(1-(3-((dimethylamino)methyl)-4-(trifluoromethyl)phenyl)ethyl)-5-ethyl-2-methylpiperazin-1-yl)-1-methyl-2-oxo-1,2-dihydropyrido[3,2-d]pyrimidine-6-carbonitrile], the IC50 on human DGKζ (setting [3]) stood at 2.72 µM; on human DGKα (setting [4]) it was 14.9 µM.
For the compound `CC[C@H]1CN(C(C)c2ccc3oc(C4CC4)nc3c2)[C@H](CC)CN1c1nc(=O)n(C)c2ccc(C#N)nc12` (stereo partly drawn) [Example 254, 4-((2S,5R)-4-(1-(2-cyclopropylbenzo[d]oxazol-5-yl)ethyl)-2,5-diethylpiperazin-1-yl)-1-methyl-2-oxo-1,2-dihydropyrido[3,2-d]pyrimidine-6-carbonitrile], the figures for the IC50 on human DGKζ (setting [1]) and on human DGKα (setting [2]) were 2.15 µM and 2.85 µM, respectively.
Consider `CCOc1ccc2c(n1)c(N1C[C@@H](CC)N(C(CC)c3ccc(C(F)(F)F)cc3)C[C@@H]1CC)nc(=O)n2C` (stereo partly drawn) [Example 437, 4-((2S,5R)-2,5-diethyl-4-(1-(4-(trifluoromethyl)phenyl)propyl)piperazin-1-yl)-6-ethoxy-1-methylpyrido[3,2-d]pyrimidin-2(1H)-one], for which the half-maximal inhibitory concentration (IC50) at human DGKζ (setting [3]) and on human DGKα (setting [4]) was 250 µM throughout.

Values taken from patent US11584747B2, “Substituted pyridopyrimidinonyl compounds useful as T cell activators” (BRISTOL-MYERS SQUIBB COMPANY, priority 2019, dated 2023).
